Paper PMC11969438 (Inorganic Chemistry Frontiers, 2025)
“Also recorded” adds a separate entry of the source. Where two headings read alike, the source gives them in different places.

What was measured:
[1] = test system: CT-26 tumors; assay: Anticancer efficacy in vivo, syngeneic colorectal carcinoma; set-up: species or system BALB/c mice; conditions: i.v. twice a week for two weeks, equimolar to 9 mg kg^−1 oxaliplatin
Description: (§1) Tumor size was determined daily via manual caliper measurement. […] Animals were euthanized via cervical dislocation.

[2] = test system: immune cell populations in tumor and spleen; assay: Immune activation and infiltration by flow cytometry; type: in vivo, CT-26-bearing BALB/c mice; conditions: 24 h after second dose
Description: as §1
The generation and treatment of tumor-bearing mice are outlined in the section “In vivo syngraft experiments” above. Samples were kept on ice during the whole procedure. Tissues were prepared as described previously.[55] In brief, tumor and spleen tissues were collected and mechanically dissociated in DPBS buffer containing Ca^2+/Mg^2+ and FCS (5%). Tumor samples were digested using collagenase VIII (1 mg mL^−1) in a DPBS buffer (without Ca^2+/Mg^2+) supplemented with DNAse I (1 mg mL^−1) for 15 min at 37 °C under constant shaking. Samples were filtered using 70 μm cell strainers in a DPBS buffer (without Ca^2+/Mg^2+) containing FCS (5%), EDTA (5 mM) and DNase I (20 μg mL^−1). Subsequent washing steps were performed in DPBS buffer (without Ca^2+/Mg^2+) containing FCS (5%), EDTA (5 mM) and DNase I (20 μg mL^−1), unless indicated otherwise. Red blood cells were removed by short incubation with ACK buffer. For blocking, samples were incubated with the Ultra-LEAF purified anti-mouse CD16/CD32 antibody (clone: 93; #101330; RRID:AB_2783037; dilution: 1 : 1000) (Biolegend, San Diego, CA, USA) in the BD Horizon Brilliant Stain Buffer (#563794; BD Biosciences) for 10 min. Next, the samples were incubated with an antibody mixture in the BD Horizon Brilliant Stain Buffer for 30 min. Fluorescent dye-labeled antibodies targeting murine CD3 (17A2; #100203; RRID:AB_312661; 1 : 50), CD8a (53-6.7; #100738; RRID:AB_11204079; 1 : 160), CD19 (6D5; #115528; RRID:AB_493735; 1 : 400), CD49b (DX5; #108924; RRID:AB_2565271; 1 : 229), CD11b (M1/70; #101228; RRID:AB_893232; 1 : 80), and CD69 (H1.2F3; # 104512; RRID:AB_493564; 1 : 40) were purchased from BioLegend. The antibody targeting murine CD4 (RM4-5; # 85-0042-U100; 1 : 80) and the viability dye Ghost Dye Red 780 (#13-0865-T100; 1 : 1000) were purchased from Tonbobio (San Diego, CA, USA). The antibody targeting CD45 (30-F11; #363-0451-82; RRID:AB_2925264; 1 : 80) was purchased from Life Tech (Invitrogen). For intracellular staining of granzyme B (GzmB) (QA16A02; #372208; RRID:AB_2687032; 1 : 20) and FoxP3 (MF-14; #320014; RRID:AB_439750; 1 : 100) the True-Nuclear Transcription Factor Buffer Set (Biolegend; #424401) was used according to the manufacturer's recommendations. In brief, samples were incubated with Perm Fix Solution for 60 min at RT. Next, the samples were stained with antibodies targeting GzmB and FoxP3 (diluted in Perm buffer) for 30 min at RT. […] Next day, the samples were analyzed using a Cytek Aurora 5L (Cytek Biosciences, CA, USA) spectral flow cytometer. Data were analyzed using SpectroFlo (v3.2.1) (Cytek Biosciences) and FlowJo (v10.8.1) (FlowJo LLC, Ashland, OR, USA) software.

[3] = Cytokine and chemokine levels in plasma of treated animals, Luminex; type: in vivo, CT-26-bearing BALB/c mice; conditions: 24 h after second dose
Description: Next, the ProcartaPlex (96-well) multiplex assay panel was performed according to the manufacturer's recommendations. In brief, the capture bead mix was incubated with test samples (undiluted SN or mouse plasma) or standard mix overnight. The SN of three independent experiments or the plasma of four animals per treatment group was loaded onto the multiplex assay plate. Next, biotinylated detection antibody mix and Streptavidin-PE were added to the plate. Following the recommended washing steps, the samples were incubated in a reading buffer and were measured using a Luminex xMAP platform (Bio-Plex MAGPIX Multiplex Reader; Bio-Rad Laboratories) and analyzed using xPONENT software.
as §1

[4] = Hematological analysis 24 h after the second dose; conditions: two i.v. doses equimolar to 9 mg kg^−1 oxaliplatin, 24 h after second dose
Description: (§2) Mice were kept in groups of four per cage with sterilized paper-based environmental enrichment and food and water ad libitum, under pathogen-free conditions and a controlled environment with a 12 h light–dark cycle. Syngeneic models of colorectal carcinoma were generated via subcutaneous injection of CT-26 cells (0.5 × 10^6 cells in 50 μL of serum-free RPMI-1640 medium) into the right flank of 8–12 weeks old BALB/c mice. […] All animals were euthanized 24 h after the second dose. […] To determine the anticancer efficacy of the investigated compounds, treatment started 4 d after tumor implantation, when all tumors were measurable (>25 mm^3) using a twice-weekly treatment scheme for two weeks. Tumor size was determined daily via manual caliper measurement. The tumor volume was calculated as tumor volume = (length × diameter × diameter)/2. The overall condition, shape, and activity of the animals were assessed daily. Peripheral blood was collected from the submandibular vein in K3E K3EDTA tubes (Greiner Bio-One; Kremsmünster, AUT) on ice and was analyzed for hematological parameters (red blood cells (RBCs), hemoglobin (HGB), hematocrit (HCT), red cell distribution width (RDW), mean corpuscular volume (MCV), white blood cells (WBCs), lymphocytes (LYM), monocytes (MO), granulocytes (GRA), and platelets (PLT) using a Vet ABC hematology analyzer (scil Animal Care GmbH, Viernheim, Germany). EDTA-blood was centrifuged (900g, 10 min) twice and the supernatant (EDTA-plasma) was stored at −20 °C for subsequent cytokine/chemokine analysis using a Luminex detection platform. All animal experiments were performed with humane endpoints based on Federation of European Laboratory Animal Science Associations guidelines and according to the regulations of the Ethics Committee for the Care and Use of Laboratory Animals at the Medical University Vienna (proposal number BMBWF 2023–0.122.324). Animals were euthanized upon reaching a tumor volume of >1500 mm^3, a loss in body weight (>20%), tumor ulceration or other indications of deteriorated health. Animals were euthanized via cervical dislocation.

[5] = Hematological analysis after long-term treatment; conditions: 72 h after the fourth dose
Description: as §2

[6] = biological target: T1, albumin (Bos taurus, UniProt P02769); assay: Albumin binding in fetal calf serum, SEC-ICP-MS; type: in vitro ADME; conditions: 50 μM in FCS
T1 construct: Serum proteins have a retention span of ∼2–4 min as part of the high-molecular weight fraction with albumin at ∼4 min; tissue Sigma-Aldrich; host or cells: fetal calf serum (whole serum, buffered with 150 mM phosphate buffer pH 7.4)
Description: FCS was purchased from Sigma-Aldrich and buffered with 150 mM PB pH 7.4 to guarantee a stable pH. The platinum(IV) complexes were dissolved in 150 mM PB (pH 7.4) at a concentration of 5 mM and diluted 1 : 100 in the buffered serum to obtain a final concentration of 50 μM. The samples were then incubated in an autosampler at 37 °C and analyzed for 24 h. Between each sample, a pure water blank was measured. For SEC-ICP-MS measurements an Agilent 1260 Infinity system coupled to an Agilent 7800 ICP-MS equipped with a dynamic reaction cell was used. Oxygen (purity 5.5, Messer Austria GmbH, Gumpoldskirchen, Austria) was used as a reaction gas.

[7] = Platinum distribution study in vivo by ICP-MS; set-up: species or system CT-26 tumor-bearing BALB/c mice; conditions: i.v., 24 h after second dose
Description: as §1
The generation and treatment of tumor-bearing mice are outlined in the section “In vivo syngraft experiments” described above. Mouse tissues were processed as described previously.[13] Briefly, serum was isolated from peripheral blood by centrifugation (900g, 10 min, 4 °C, twice). Tissues were digested in 20% nitric acid and hydrogen peroxide using an open-vessel graphite digestion system. The platinum concentration was determined by ICP-MS analysis; for details see “Intracellular platinum accumulation in vitro by ICP-MS”.

[8] = test system: THP1-Dual, HCT116, HCT116/OxR and CT-26 cells; assay: MTT-based cell viability assay, 72 h, statements over all investigated cell lines; set-up: species or system human and murine; conditions: none of the investigated cell lines vulnerable, read-out: IC50 of free single agent
Description: Cell models were seeded (2–2.5 × 10^3 cells per well) in 96-well plates. After 24 h of recovery, the compounds were applied at the concentrations indicated in triplicate. Cell viability was determined after 72 h of continuous drug incubation using an MTT-based cell viability assay (EZ4U, Biomedica, Vienna, Austria) according to the manufacturer's recommendations. Absorbance was measured at 450 nm (vs. 620 nm as reference) using a multimode microplate reader (Tecan Spark, Zurich, Switzerland). Half-maximal inhibitory concentrations (IC50 values) were derived via interpolation from dose–response curves, modeled with the four-parameter logistic (4PL) nonlinear regression model in GraphPad Prism (La Jolla, CA, USA) from at least three independent experiments.

[9] = test system: IRF pathway (STING-dependent); set-up: method as in PMID 32820126; conditions: read-out: IRF EC50, previous report; cited from earlier work
[10] = test system: IRF pathway (STING-dependent); assay: IRF-inducible luciferase reporter in THP1-Dual reporter cell model; type: cell-based, human
From the text: (§3) The THP1-Dual™ reporter cell model for simultaneously monitoring the activity of the IRF and NF-κB pathway contains an IRF-inducible luciferase reporter under the control of an ISG54 minimal promoter in conjunction with five interferon (IFN)-stimulated response elements, and an induced SEAP driven by an IFN-β minimal promoter fused to five copies of the NF-κB consensus transcriptional response element and three copies of the c-Rel binding site. The luciferase and SEAP reporter are measurable in the cell culture supernatant using QUANTI-Luc™ 4 Lucia/Gaussia (InvivoGen) and QUANTI-Blue™ (InvivoGen) solution, respectively. Cells were seeded at 1 × 10^5 cells per well in 96-well plates in RPMI-1640 medium, supplemented with 10% FCS, L-glutamine and Pen-Strep. After 2 h of recovery, the compounds were applied at the concentrations indicated in triplicate. The cell culture supernatant (SN) was collected after 24 h of drug incubation and secreted luciferase and SEAP reporter levels were measured according to the manufacturer's recommendations. In brief, for the detection of luciferase, 20 μL of SN were transferred into 96-well white opaque plates, and 30 μL of QUANTI-Luc™ reagent were added per well using an injector module in a multimode microplate reader (Tecan Spark, Zurich, Switzerland). Luminescence was recorded at a reading time of 0.1 second. For the detection of SEAP, 10 μL of SN were transferred to 96-well plates and 90 μL of QUANTI-Blue™ were added per well. Absorbance was measured at 620 nm. Half-maximal effective concentrations (EC50 values) were derived via interpolation from dose–response curves, modeled with the four-parameter logistic (4PL) nonlinear regression model in GraphPad Prism. For comparison, the maximal response rate of the prodrug was depicted in the percent of the maximal response rate achieved by SR-717 or MSA-2 (%EMAX) at the respective concentrations tested. Activatability, tested in co-incubation experiments with AA (50 μM), was expressed as the area under the curve (AUC) ratio of +AA vs. −AA-treated cells. The STING-dependency of the reporter induction was tested by co-administration of the STING inhibitor H-151 (10 μM), added to the cell culture medium 2 h before applying the investigated compounds. In addition to monitoring secreted reporter levels, the cell viability of the reporter cells was determined after 24 h of drug treatment by an MTT-based cell viability assay.

[11] = test system: NF-κB pathway (STING-dependent); assay: NF-κB-inducible SEAP reporter in THP1-Dual reporter cell model; type: cell-based, human
From the text: as §3

[12] = two doses, vs Ox-MSA-PEG-Ca or oxaliplatin
[13] = 24 h, maximal response relative to SR-717
[14] = 24 h exposure, normalized to cell viability, oxaliplatin in combinations 5 μM

T1 sequence (P02769 25-607): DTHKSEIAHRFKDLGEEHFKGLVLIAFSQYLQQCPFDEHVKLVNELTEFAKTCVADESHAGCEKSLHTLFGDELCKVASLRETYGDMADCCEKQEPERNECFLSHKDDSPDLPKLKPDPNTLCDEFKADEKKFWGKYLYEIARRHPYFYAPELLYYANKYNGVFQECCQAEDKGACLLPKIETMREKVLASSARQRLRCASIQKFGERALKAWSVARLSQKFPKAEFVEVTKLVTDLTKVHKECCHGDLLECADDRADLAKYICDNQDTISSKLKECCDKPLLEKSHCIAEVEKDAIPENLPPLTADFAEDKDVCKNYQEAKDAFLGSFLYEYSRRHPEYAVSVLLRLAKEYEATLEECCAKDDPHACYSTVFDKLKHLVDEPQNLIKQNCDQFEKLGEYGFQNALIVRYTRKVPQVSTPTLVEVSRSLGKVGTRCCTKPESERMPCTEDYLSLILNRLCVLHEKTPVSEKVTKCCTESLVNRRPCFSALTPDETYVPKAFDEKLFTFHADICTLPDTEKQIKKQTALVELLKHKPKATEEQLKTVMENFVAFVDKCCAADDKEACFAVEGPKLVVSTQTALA

## COc1cc2cc(C(=O)CCC(=O)[O][Pt-2]34([O]C(=O)NCCOCCOCCOCCOCCN5C(=O)C=CC5=O)([NH2+][C@@H]5CCCC[C@H]5[NH2+]3)[O]C(=O)C(=O)[O]4)sc2cc1OC [Ox-MSA-Mal, (OC-6-34)-[(1R,2R)-1,2-cyclohexanediamino]-oxalato-[4-(5,6-dimethoxybenzo[b]thiophen-2-yl)-4-oxobutylcarboxylato]-[(14-(2,5-dioxo-2,5-dihydro-1H-pyrrol-1-yl)-3,6,9,12-tetraoxatetradecyl)carbamato]platinum(IV)]
[1]
  tumor growth: distinctly stronger anticancer efficacy; also recorded: significantly inhibited colorectal tumor growth
[2]
  FoxP3+ CD4+ T cell compartment in the spleen: selectively elevated
[3]
  plasma chemokines CXCL9 and CXCL11: most strongly activated
[4]
  anemia: not
[5]
  RBC toxicity: strongly reduced
  platelet counts (PLT) / thrombocytopenia: not evident
[5]; i.v. twice a week for two weeks
  absolute counts of white blood cells and subpopulations: induced an increase
[6]; 150 mM PB pH 7.4, 37 °C, 0 h time point
  platinum bound to albumin: approximately 99%
[6]; 37 °C, no release of platinum from the protein
  stability of albumin drug conjugate: stable over 24 h
[7]; two doses equimolar to 9 mg kg^−1 oxaliplatin
  liver platinum level relative to tumor: 1.4 fold
[7]; [12]
  platinum accumulation in peripheral blood cells: clearly lowered accumulation
  platinum levels in serum and tumor: distinctly elevated platinum levels

## O=C(Nc1cc(F)c(F)cc1C(=O)[O-])c1ccc(-n2ccnc2)nn1.[Li+] [SR-717]
[8]
  IC50: > 75 µM
[9]
  EC50: 2100 nM
[10]; 24 h
  IRF EC50 ratio fold SR-717: 1.0 fold
  activation of IRF signaling pathway: robustly activated
[10]; [13]
  IRF %EMAX of SR-717: 100%
[10]; [14]
  EC50: 2900 nM
[10]; AA 50 μM
  impact of reducing conditions on IRF-induced reporter signal (AUC ratio +AA/−AA): no notable modulation
[11]; 24 h
  NF-κB EC50 ratio fold SR-717: 1.0 fold
  activation of NF-κB signaling pathway: robustly activated
[11]; [13]
  NF-κB %EMAX of SR-717: 100%
[11]; [14]
  EC50: 5.8 µM
